Our source for the IC50 values is ChEMBL document CHEMBL5727696, “Tetrahydroisoquinoline derived PRMT5-inhibitors” (2020).

This assay can be described thus: Revised Biochemical Assay: Full-length PRMT5 enzyme (NCBI Reference sequence NP_006100.2) was co-expressed with Hiss-MEP50 in insect cells and purified via Nickel immobilized metal affinity and gel filtration chromatography (“the enzyme”).The 6 μL reactions are run in Greiner brand black 384-well low volume assay plates. All reactions contained assay buffer (phosphate buffered saline, 0.01% (v/v) Tween-20, 0.01% (w/v) albumin from chicken egg white, 1 mM Dithiothreitol, 1 μM peptide substrate, 1 μM S-Adenosyl methionine, and 15 ng/reaction enzyme, with the enzyme being omitted from negative control reactions. Compounds were added in a volume of 100 nL from dilution series prepared in DMSO, positive and negative control reactions receiving the same volume DMSO without compound. The plates were sealed with adhesive seals and incubated for 4 hours at 37 degree Celsius. Reaction progress was measured using the Transcreener™ EPIGEN methyltransferase assay (BellBrook Labs, Madison, Wis.) as recommended by the manufacturer. To each reaction 2 μL detection mix were added, containing coupling enzymes, fluorescence polarisation tracer, and AMP antibody. Plates were incubated for 90 minutes before being read on a PerkinElmer EnVision plate reader in fluorescence polarisation mode. (In general: Size exclusion chromatography separates by hydrodynamic size, large species first.)

Usually IC50 stands for the concentration that inhibits the measured activity by half. Read a high IC50 as weaker potency in that assay.

As to `N#Cc1ccc(C(=O)NCCC(O)CN2CCc3ccccc3C2)cc1` (stereo unspecified), inhibition was half-maximal at 3.98 µM (IC50).
